Data reported in ChEMBL document CHEMBL5143578, “Elucidation of structure-activity relationship of humulanolides and identification of humulanolide analog as a novel HSP90 inhibitor” (Bioorg Med Chem Lett, 2022).
Activity calls are given as the source filed them. No cut-off for these calls is given here.

tested on: Ca9-22; test: Antiproliferative activity against human Ca9-22 cells incubated for 24 hrs by MTT assay; type: functional, cell-based; conditions: Ca9-22, 24 h

Row | Compound | IC50
1 | CC1(C)/C=C/C(=O)[C@@]2(C)O[C@H]2CCC2=C[C@@H]1OC2=O | 2.94 µM
2 | C/C1=C\CCC2=C[C@H](OC2=O)C(C)(C)/C=C/C1=O | 4.79 µM
3 | CC1(C)[C@H]2[C@H]3[C@@H]1OC(=O)C31CC[C@@H]3O[C@]3(C)C(=O)[C@H]21 (stereo not given in full) | > 10 µM
4 | C/C1=C/CCC2=C[C@H](OC2=O)C(C)(C)/C=C/C1=O | 7.52 µM
5 | CC1(C)/C=C/[C@H](O)[C@@]2(C)O[C@@H]2CCC2=C[C@@H]1OC2=O | > 10 µM
6 | C/C1=C/CCC2=C[C@H](OC2=O)C(C)(C)/C=C\C1=O | 9.89 µM

tested on: SK-MEL-28; test: Antiproliferative activity against human SK-MEL-28 cells incubated for 24 hrs by MTT assay; type: functional, cell-based; conditions: SK-MEL-28, 24 h

Row | Compound | IC50
7 | CC1(C)/C=C/C(=O)[C@@]2(C)O[C@H]2CCC2=C[C@@H]1OC2=O | 3.43 µM
8 | C/C1=C\CCC2=C[C@H](OC2=O)C(C)(C)/C=C/C1=O | 5.26 µM
9 | CC1(C)[C@H]2[C@H]3[C@@H]1OC(=O)C31CC[C@@H]3O[C@]3(C)C(=O)[C@H]21 (stereo not given in full) | > 10 µM
10 | C/C1=C/CCC2=C[C@H](OC2=O)C(C)(C)/C=C/C1=O | > 10 µM
11 | CC1(C)/C=C/[C@H](O)[C@@]2(C)O[C@@H]2CCC2=C[C@@H]1OC2=O | > 10 µM
12 | C/C1=C/CCC2=C[C@H](OC2=O)C(C)(C)/C=C\C1=O | > 10 µM

tested on: A549; test: Antiproliferative activity against human A549 cells incubated for 24 hrs by MTT assay; type: functional, cell-based; conditions: A549, 24 h

Row | Compound | IC50
13 | CC1(C)/C=C/C(=O)[C@@]2(C)O[C@H]2CCC2=C[C@@H]1OC2=O | 3.02 µM
14 | C/C1=C\CCC2=C[C@H](OC2=O)C(C)(C)/C=C/C1=O | 5.51 µM
15 | CC1(C)[C@H]2[C@H]3[C@@H]1OC(=O)C31CC[C@@H]3O[C@]3(C)C(=O)[C@H]21 (stereo not given in full) | > 10 µM
16 | C/C1=C/CCC2=C[C@H](OC2=O)C(C)(C)/C=C/C1=O | 6.62 µM
17 | CC1(C)/C=C/[C@H](O)[C@@]2(C)O[C@@H]2CCC2=C[C@@H]1OC2=O | > 10 µM
18 | C/C1=C/CCC2=C[C@H](OC2=O)C(C)(C)/C=C\C1=O | > 10 µM

target: T1, Heat shock protein HSP90 (Homo sapiens) (UniProt P07900+P08238); test: Inhibition of HSP90 in human HT-1080 cells assessed as decrease in CDK4 protein level by measuring half-life of CDK4 protein at 20 uM measured upto 24 hrs in the presence of cycloheximide by Western blotting analysis; type: cell-based; conditions: not given

Row | Compound | T1/2
19 | CC1(C)/C=C/C(=O)[C@@]2(C)O[C@H]2CCC2=C[C@@H]1OC2=O | 8 h

target: T1, Heat shock protein HSP90 (Homo sapiens); test: Inhibition of HSP90 in human HT-1080 cells assessed as upregulation of HSP70 protein expression measured after 24 hrs by Western blot analysis; type: cell-based; conditions: dose 3-30 µM

Row | Compound | inhibition
20 | CC1(C)/C=C/C(=O)[C@@]2(C)O[C@H]2CCC2=C[C@@H]1OC2=O | Active

target: T1, Heat shock protein HSP90 (Homo sapiens); test: Inhibition of HSP90 in human HT-1080 cells assessed as downregulation of CDK4 protein expression measured after 24 hrs by Western blot analysis; type: cell-based; conditions: dose 3-30 µM

Row | Compound | inhibition
21 | CC1(C)/C=C/C(=O)[C@@]2(C)O[C@H]2CCC2=C[C@@H]1OC2=O | Active

tested on: PC-3; test: Antiproliferative activity against human PC-3 cells incubated for 24 hrs by MTT assay; type: functional, cell-based; conditions: PC-3, 24 h

Row | Compound | IC50
22 | CC1(C)/C=C/C(=O)[C@@]2(C)O[C@H]2CCC2=C[C@@H]1OC2=O | 1.81 µM
23 | C/C1=C\CCC2=C[C@H](OC2=O)C(C)(C)/C=C/C1=O | 3.13 µM
24 | CC1(C)[C@H]2[C@H]3[C@@H]1OC(=O)C31CC[C@@H]3O[C@]3(C)C(=O)[C@H]21 (stereo not given in full) | > 10 µM
25 | C/C1=C/CCC2=C[C@H](OC2=O)C(C)(C)/C=C/C1=O | 2.65 µM
26 | CC1(C)/C=C/[C@H](O)[C@@]2(C)O[C@@H]2CCC2=C[C@@H]1OC2=O | > 10 µM
27 | C/C1=C/CCC2=C[C@H](OC2=O)C(C)(C)/C=C\C1=O | > 10 µM

tested on: HeLa; test: Antiproliferative activity against human HeLa cells incubated for 24 hrs by MTT assay; type: functional, cell-based; conditions: not given

Row | Compound | IC50
28 | CC1(C)/C=C/C(=O)[C@@]2(C)O[C@H]2CCC2=C[C@@H]1OC2=O | 4.78 µM
29 | C/C1=C\CCC2=C[C@H](OC2=O)C(C)(C)/C=C/C1=O | 8.64 µM
30 | CC1(C)[C@H]2[C@H]3[C@@H]1OC(=O)C31CC[C@@H]3O[C@]3(C)C(=O)[C@H]21 (stereo not given in full) | > 10 µM
31 | C/C1=C/CCC2=C[C@H](OC2=O)C(C)(C)/C=C/C1=O | 8.19 µM
32 | CC1(C)/C=C/[C@H](O)[C@@]2(C)O[C@@H]2CCC2=C[C@@H]1OC2=O | > 10 µM
33 | C/C1=C/CCC2=C[C@H](OC2=O)C(C)(C)/C=C\C1=O | > 10 µM

tested on: HT-1080; test: Antiproliferative activity against human HT-1080 cells incubated for 24 hrs by MTT assay; type: functional, cell-based; conditions: HT-1080, 24 h

Row | Compound | IC50
34 | CC1(C)/C=C/C(=O)[C@@]2(C)O[C@H]2CCC2=C[C@@H]1OC2=O | 6.54 µM
35 | C/C1=C\CCC2=C[C@H](OC2=O)C(C)(C)/C=C/C1=O | 5.31 µM
36 | CC1(C)[C@H]2[C@H]3[C@@H]1OC(=O)C31CC[C@@H]3O[C@]3(C)C(=O)[C@H]21 (stereo not given in full) | > 10 µM
37 | C/C1=C/CCC2=C[C@H](OC2=O)C(C)(C)/C=C/C1=O | 8.17 µM
38 | CC1(C)/C=C/[C@H](O)[C@@]2(C)O[C@@H]2CCC2=C[C@@H]1OC2=O | > 10 µM
39 | C/C1=C/CCC2=C[C@H](OC2=O)C(C)(C)/C=C\C1=O | > 10 µM

target: T1, Heat shock protein HSP90 (Homo sapiens); test: Inhibition of HSP90 in human HT-1080 cells assessed as downregulation of Akt protein expression measured after 24 hrs by Western blot analysis; type: cell-based; conditions: dose 3-30 µM

Row | Compound | inhibition
40 | CC1(C)/C=C/C(=O)[C@@]2(C)O[C@H]2CCC2=C[C@@H]1OC2=O | Active

tested on: CHL-1; test: Antiproliferative activity against human CHL-1 cells incubated for 24 hrs by MTT assay; type: functional, cell-based; conditions: CHL-1, 24 h

Row | Compound | IC50
41 | CC1(C)/C=C/C(=O)[C@@]2(C)O[C@H]2CCC2=C[C@@H]1OC2=O | 3.63 µM
42 | C/C1=C\CCC2=C[C@H](OC2=O)C(C)(C)/C=C/C1=O | 4.71 µM
43 | CC1(C)[C@H]2[C@H]3[C@@H]1OC(=O)C31CC[C@@H]3O[C@]3(C)C(=O)[C@H]21 (stereo not given in full) | > 10 µM
44 | C/C1=C/CCC2=C[C@H](OC2=O)C(C)(C)/C=C/C1=O | > 10 µM
45 | CC1(C)/C=C/[C@H](O)[C@@]2(C)O[C@@H]2CCC2=C[C@@H]1OC2=O | > 10 µM
46 | C/C1=C/CCC2=C[C@H](OC2=O)C(C)(C)/C=C\C1=O | > 10 µM

tested on: HCT-116; test: Antiproliferative activity against human HCT-116 cells incubated for 24 hrs by MTT assay; type: functional, cell-based; conditions: HCT-116, 24 h

Row | Compound | IC50
47 | CC1(C)/C=C/C(=O)[C@@]2(C)O[C@H]2CCC2=C[C@@H]1OC2=O | 1.22 µM
48 | C/C1=C\CCC2=C[C@H](OC2=O)C(C)(C)/C=C/C1=O | 6.59 µM
49 | CC1(C)[C@H]2[C@H]3[C@@H]1OC(=O)C31CC[C@@H]3O[C@]3(C)C(=O)[C@H]21 (stereo not given in full) | > 10 µM
50 | C/C1=C/CCC2=C[C@H](OC2=O)C(C)(C)/C=C/C1=O | 9.82 µM
51 | CC1(C)/C=C/[C@H](O)[C@@]2(C)O[C@@H]2CCC2=C[C@@H]1OC2=O | > 10 µM
52 | C/C1=C/CCC2=C[C@H](OC2=O)C(C)(C)/C=C\C1=O | > 10 µM

tested on: HT-1080; test: Induction of cell morphological changes in human HT-1080 cells at 20 uM incubated for 24 hrs by phase contrast microscopic analysis; type: functional, cell-based; conditions: not given

Row | Compound | Activity
53 | CC1(C)/C=C/C(=O)[C@@]2(C)O[C@H]2CCC2=C[C@@H]1OC2=O | Active

tested on: HT-1080; test: Upregulation of HSP70 protein expression in human HT-1080 cells by Western blotting analysis; type: functional, cell-based; conditions: not given

Row | Compound | Activity
54 | C/C1=C\CCC2=C[C@H](OC2=O)C(C)(C)/C=C/C1=O | Active
55 | C/C1=C/CCC2=C[C@H](OC2=O)C(C)(C)/C=C/C1=O | Active
